# Data: PubChem BioAssay AID1963828 (Molecular Pharmacology Branch, DTP, NCI, 2024)
# pIC50: −log10 of the molar value.
# Test system: 991263-137-R1-J2-PDC complex spheroid viability
# Assay: Anticancer human tumor 991263-137-R1-J2-PDC patient-derived colon adenocarcinoma cell line growth inhibition [POLQ]
# Conditions: for pIC50: curve of first compound; for viability, T/C: stronger effect = lower value
# How it was run: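 Complex spheroid viability model combining PDC tumour cells with endothelial (HUVEC) and MSC stromal cells. Novobiocin, ART-558 or RP6685 were tested singly and in combination with standard and investigational anticancer drugs. Each was titrated in half-log steps from near clinical Cmax, or from 10 microM where Cmax was unknown.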
# [1] = second compound 0.0316 µM, first compound 0.0316 µM
# [2] = second compound 0.0316 µM, first compound 0.1 µM
# [3] = second compound 0.0316 µM, first compound 0.316 µM
# [4] = second compound 0.0316 µM, first compound 1 µM
# [5] = second compound 0.0316 µM, first compound 3.16 µM
# [6] = second compound 0.0316 µM, first compound 10 µM
# [7] = second compound 0.1 µM, first compound 0.0316 µM
# [8] = second compound 0.1 µM, first compound 0.1 µM
# [9] = second compound 0.1 µM, first compound 0.316 µM
# [10] = second compound 0.1 µM, first compound 1 µM
# [11] = second compound 0.1 µM, first compound 3.16 µM
# [12] = second compound 0.1 µM, first compound 10 µM
# [13] = second compound 0.316 µM, first compound 0.0316 µM
# [14] = second compound 0.316 µM, first compound 0.1 µM
# [15] = second compound 0.316 µM, first compound 0.316 µM
# [16] = second compound 0.316 µM, first compound 1 µM
# [17] = second compound 0.316 µM, first compound 3.16 µM
# [18] = second compound 0.316 µM, first compound 10 µM
# [19] = second compound 1 µM, first compound 0.0316 µM
# [20] = second compound 1 µM, first compound 0.1 µM
# [21] = second compound 1 µM, first compound 0.316 µM
# [22] = second compound 1 µM, first compound 1 µM
# [23] = second compound 1 µM, first compound 3.16 µM
# [24] = second compound 1 µM, first compound 10 µM
# [25] = second compound 3.16 µM, first compound 0.0316 µM
# [26] = second compound 3.16 µM, first compound 0.1 µM
# [27] = second compound 3.16 µM, first compound 0.316 µM
# [28] = second compound 3.16 µM, first compound 1 µM
# [29] = second compound 3.16 µM, first compound 3.16 µM
# [30] = second compound 3.16 µM, first compound 10 µM
# [31] = second compound 10 µM, first compound 0.0316 µM
# [32] = second compound 10 µM, first compound 0.1 µM
# [33] = second compound 10 µM, first compound 0.316 µM
# [34] = second compound 10 µM, first compound 1 µM
# [35] = second compound 10 µM, first compound 3.16 µM
# [36] = second compound 10 µM, first compound 10 µM
# 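Also: spheroids exposed to compounds for 7 days before readout.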
# 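For viability, T/C in this document: 100% = DMSO vehicle control viability.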
structure (smiles),measurement,setting,value
C#Cc1c(F)ccc2cc(O)cc(-c3ncc4c(N5CC6CCC(C5)N6)nc(OCC56CCCN5CC(F)C6)nc4c3F)c12 (stereo not drawn) + Cc1cccc(N(C)C(=O)C2C(O)CCN2c2nc(C)cc(C(F)(F)F)c2C#N)c1,pIC50,second compound 0.0316 µM,< 5.00
same,pIC50,second compound 0.1 µM,< 5.00
same,pIC50,second compound 0.316 µM,< 5.00
same,pIC50,second compound 1 µM,< 5.00
same,pIC50,second compound 3.16 µM,< 5.00
same,pIC50,second compound 10 µM,< 5.00
same,"viability, T/C",[1],110%
same,"viability, T/C",[2],95.5%
same,"viability, T/C",[3],104%
same,"viability, T/C",[4],104%
same,"viability, T/C",[5],92.9%
same,"viability, T/C",[6],100%
same,"viability, T/C",[7],97.8%
same,"viability, T/C",[8],104%
same,"viability, T/C",[9],109%
same,"viability, T/C",[10],76.1%
same,"viability, T/C",[11],106%
same,"viability, T/C",[12],92.2%
same,"viability, T/C",[13],101%
same,"viability, T/C",[14],106%
same,"viability, T/C",[15],89.8%
same,"viability, T/C",[16],93.5%
same,"viability, T/C",[17],97.7%
same,"viability, T/C",[18],95.8%
same,"viability, T/C",[19],93.8%
same,"viability, T/C",[20],95%
same,"viability, T/C",[21],103%
same,"viability, T/C",[22],95.6%
same,"viability, T/C",[23],99.9%
same,"viability, T/C",[24],98.2%
same,"viability, T/C",[25],95%
same,"viability, T/C",[26],117%
same,"viability, T/C",[27],121%
same,"viability, T/C",[28],93.2%
same,"viability, T/C",[29],98.7%
same,"viability, T/C",[30],105%
same,"viability, T/C",[31],94.8%
same,"viability, T/C",[32],102%
same,"viability, T/C",[33],106%
same,"viability, T/C",[34],90.1%
same,"viability, T/C",[35],106%
same,"viability, T/C",[36],79.7%
C=CC(=O)N1CCN(c2nc(=O)n(-c3c(C)ccnc3C(C)C)c3nc(-c4c(O)cccc4F)c(F)cc23)C(C)C1 (stereo not drawn) + Cc1cccc(N(C)C(=O)C2C(O)CCN2c2nc(C)cc(C(F)(F)F)c2C#N)c1,pIC50,second compound 0.0316 µM,< 5.00
same,pIC50,second compound 0.1 µM,< 5.00
same,pIC50,second compound 0.316 µM,< 5.00
same,pIC50,second compound 1 µM,< 5.00
same,pIC50,second compound 3.16 µM,< 5.00
same,pIC50,second compound 10 µM,< 5.00
same,"viability, T/C",[1],104%
same,"viability, T/C",[2],109%
same,"viability, T/C",[3],93.5%
same,"viability, T/C",[4],103%
same,"viability, T/C",[5],114%
same,"viability, T/C",[6],115%
same,"viability, T/C",[7],114%
same,"viability, T/C",[8],112%
same,"viability, T/C",[9],102%
same,"viability, T/C",[10],90.5%
same,"viability, T/C",[11],116%
same,"viability, T/C",[12],107%
same,"viability, T/C",[13],97.6%
same,"viability, T/C",[14],107%
same,"viability, T/C",[15],102%
same,"viability, T/C",[16],90.3%
same,"viability, T/C",[17],120%
same,"viability, T/C",[18],104%
same,"viability, T/C",[19],88%
same,"viability, T/C",[20],117%
same,"viability, T/C",[21],107%
same,"viability, T/C",[22],81.7%
same,"viability, T/C",[23],115%
same,"viability, T/C",[24],124%
same,"viability, T/C",[25],98.7%
same,"viability, T/C",[26],118%
same,"viability, T/C",[27],95.7%
same,"viability, T/C",[28],91.7%
same,"viability, T/C",[29],123%
same,"viability, T/C",[30],107%
same,"viability, T/C",[31],101%
same,"viability, T/C",[32],107%
same,"viability, T/C",[33],108%
same,"viability, T/C",[34],116%
same,"viability, T/C",[35],116%
same,"viability, T/C",[36],103%
CC1COCCN1c1cc(-c2ccnn2C)c2ccnc(-c3ccn[nH]3)c2n1 (stereo not drawn) + Cc1cccc(N(C)C(=O)C2C(O)CCN2c2nc(C)cc(C(F)(F)F)c2C#N)c1,pIC50,second compound 0.0316 µM,6.02
same,pIC50,second compound 0.1 µM,6.00
same,pIC50,second compound 0.316 µM,6.11
same,pIC50,second compound 1 µM,6.00
same,pIC50,second compound 3.16 µM,5.84
same,pIC50,second compound 10 µM,6.07
same,"viability, T/C",[1],99.7%
same,"viability, T/C",[2],96.8%
same,"viability, T/C",[3],81.5%
same,"viability, T/C",[4],47.6%
same,"viability, T/C",[5],36.2%
same,"viability, T/C",[6],29.4%
same,"viability, T/C",[7],125%
same,"viability, T/C",[8],97.6%
same,"viability, T/C",[9],81.8%
same,"viability, T/C",[10],45.2%
same,"viability, T/C",[11],35.7%
same,"viability, T/C",[12],33.5%
same,"viability, T/C",[13],94.4%
same,"viability, T/C",[14],110%
same,"viability, T/C",[15],75.4%
same,"viability, T/C",[16],44.3%
same,"viability, T/C",[17],35.1%
same,"viability, T/C",[18],28.8%
same,"viability, T/C",[19],90.3%
same,"viability, T/C",[20],99.3%
same,"viability, T/C",[21],64.3%
same,"viability, T/C",[22],53.3%
same,"viability, T/C",[23],39.3%
same,"viability, T/C",[24],30.7%
same,"viability, T/C",[25],88.8%
same,"viability, T/C",[26],114%
same,"viability, T/C",[27],89%
same,"viability, T/C",[28],58.2%
same,"viability, T/C",[29],32.9%
same,"viability, T/C",[30],31.6%
same,"viability, T/C",[31],103%
same,"viability, T/C",[32],104%
same,"viability, T/C",[33],78.3%
same,"viability, T/C",[34],46%
same,"viability, T/C",[35],34.9%
same,"viability, T/C",[36],32.1%
CC1COCCN1c1cc(C2(O)CC3CCC(C2)O3)c2cnn(-c3ccn[nH]3)c2n1 (stereo not drawn) + Cc1cccc(N(C)C(=O)C2C(O)CCN2c2nc(C)cc(C(F)(F)F)c2C#N)c1,pIC50,second compound 0.0316 µM,5.91
same,pIC50,second compound 0.1 µM,5.66
same,pIC50,second compound 0.316 µM,5.79
same,pIC50,second compound 1 µM,5.51
same,pIC50,second compound 3.16 µM,5.59
same,pIC50,second compound 10 µM,6.02
same,"viability, T/C",[1],107%
same,"viability, T/C",[2],84.8%
same,"viability, T/C",[3],67.5%
same,"viability, T/C",[4],55.8%
same,"viability, T/C",[5],35.8%
same,"viability, T/C",[6],30.1%
same,"viability, T/C",[7],110%
same,"viability, T/C",[8],103%
same,"viability, T/C",[9],82.3%
same,"viability, T/C",[10],61.1%
same,"viability, T/C",[11],46.4%
same,"viability, T/C",[12],29.2%
same,"viability, T/C",[13],107%
same,"viability, T/C",[14],110%
same,"viability, T/C",[15],75.9%
same,"viability, T/C",[16],59.2%
same,"viability, T/C",[17],42.5%
same,"viability, T/C",[18],28.3%
same,"viability, T/C",[19],92%
same,"viability, T/C",[20],98.2%
same,"viability, T/C",[21],87.1%
same,"viability, T/C",[22],67.4%
same,"viability, T/C",[23],52.5%
same,"viability, T/C",[24],28.6%
same,"viability, T/C",[25],93.4%
same,"viability, T/C",[26],85.5%
same,"viability, T/C",[27],74.4%
same,"viability, T/C",[28],61.6%
same,"viability, T/C",[29],47.4%
same,"viability, T/C",[30],34.6%
same,"viability, T/C",[31],90.9%
same,"viability, T/C",[32],98.8%
same,"viability, T/C",[33],75.2%
same,"viability, T/C",[34],48.2%
same,"viability, T/C",[35],37.7%
same,"viability, T/C",[36],25.9%
